# Target: PI 3-kinase gamma (Homo sapiens (Human), UniProt P48736)
# Assay: TR-FRET Adapta assay (Assay E)
# Format: biochemical
# Settings: read-out: Assay E PI3Kγ IC50
# Text: TR-FRET Adapta Assay for PI 3-Kinase Gamma (E), PI 3-Kinase Delta (F)
# The TR-FRET Adapta™ Universal Kinase Assay Kit was purchased from Invitrogen Corporation (Carlsbad/CA, USA) (Cat. No. PV5099). The kit contains the following reagents: Adapta Eu-anti-ADP Antibody (Europium labeled anti-ADP antibody in HEPES buffered saline, Cat. No. PV5097), Alexa Fluor® 647-labeled ADP tracer (Alexa Fluor® 647-labeled ADP tracer in HEPES buffered saline, Cat. No. PV5098), TR-FRET dilution buffer pH 7.5 (Cat. No. PV3574). PIK3CD substrate phosphatidylinositol (PI) was obtained from Invitrogen (vesicules consisting of 2 mM phosphatidylinositol (PI) in 50 mM HEPES pH7.5; Cat. No. PV5371). PIK3CG substrate phosphatidylinositol-4,5-bisphosphate (PIP(4,5)2 was obtained from Invitrogen (PIP2:PS large unilamellar vesicules consisting of 1 mM PIP2: 19 mM PS in 50 mM HEPES pH7.5, 3 mM MgCl2, 1 mM EGTA; Cat. No. PV5100).
# Time-Resolved Fluorescence Resonance Energy Transfer (TR-FRET) is a technology based on energy transfer between two adjacent dyes, from an excited electron in one dye (the donor) to an electron of an adjacent dye (the acceptor) through resonance, then released as a photon. This energy transfer is detected by an increase in the fluorescence emission of the acceptor, and a decrease in the fluorescence emission of the donor. TR-FRET assays for protein kinases use a long-lifetime lanthanide Terbium or Europium chelates as the donor species which overcome interference from compound autofluorescence or light scatter from precipitated compounds, by introducing a delay after excitation by a flashlamp excitation source. Results are often expressed as a ratio of the intensities of the acceptor and donor fluorophores. The ratiometric nature of such a value corrects for differences in assay volumes between wells, as well as corrects for quenching effects due to colored compounds. The Adapta™ assay can be divided into two phases: a kinase reaction phase and an ADP detection phase. In the kinase reaction phase, all kinase reaction components are added to the well and the reaction is allowed to incubate for a set period of time specific for each kinase. After the reaction, a detection solution of Eu-labeled anti-ADP antibody, Alexa Fluor® 647-labeled ADP tracer, and EDTA (to stop the kinase reaction) are added to the assay well. ADP formed by the kinase reaction will displace the Alexa Fluor® 647-labeled ADP tracer from the antibody, resulting in a decrease in TR-FRET signal. In the presence of an inhibitor, the amount of ADP formed by the kinase reaction is reduced, and the resulting intact antibodytracer interaction maintains a high TR-FRET signal. In the Adapta™ assay, the donor (Europium-anti-ADP antibody) is excited at 340 nm and will transfer its energy to the acceptor (Alexa Fluor® 647-labeled ADP tracer). The emission from the Alexa Fluor® 647 can be monitored with a filter centered at 665 nm because it is located between the emission peaks of the donor, which is measured at 615/620 nm. 50 nL of compound dilutions were dispensed onto white 384-well small volume polystyrene plate. Then 5 μL of either PI 3-kinase gamma or PI 3-kinase delta and lipid substrate (P1 or PIP2:PS) followed by 5 μL of ATP (final assay volume 10 μL) are incubated at RT. The standard reaction buffer for the Adapta™ TR-FRET assay contained 10 mM Tris-HCl pH 7.5, 3 mM MgCl2, 50 mM NaCl, 1 mM DTT, 0.05% CHAPS ((3-[(3-cholamidopropyl)dimethylammonio]-1-propanesulfonate). Reactions were stopped with 5 μL of a mixture of EDTA containing the Eu-labeled anti-ADP antibody and the Alexa Fluor® 647-labeled ADP tracer in TR-FRET dilution buffer. Plates are read 15 to 60 mins later in a Synergy2 reader using an integration time of 0.4 seconds and a delay of 0.05 seconds. Control for the 100% inhibition of the kinase reaction was performed by replacing the PI 3-kinase by the standard reaction buffer. […]
# PI 3-kinase gamma, sequence (P48736 whole entry): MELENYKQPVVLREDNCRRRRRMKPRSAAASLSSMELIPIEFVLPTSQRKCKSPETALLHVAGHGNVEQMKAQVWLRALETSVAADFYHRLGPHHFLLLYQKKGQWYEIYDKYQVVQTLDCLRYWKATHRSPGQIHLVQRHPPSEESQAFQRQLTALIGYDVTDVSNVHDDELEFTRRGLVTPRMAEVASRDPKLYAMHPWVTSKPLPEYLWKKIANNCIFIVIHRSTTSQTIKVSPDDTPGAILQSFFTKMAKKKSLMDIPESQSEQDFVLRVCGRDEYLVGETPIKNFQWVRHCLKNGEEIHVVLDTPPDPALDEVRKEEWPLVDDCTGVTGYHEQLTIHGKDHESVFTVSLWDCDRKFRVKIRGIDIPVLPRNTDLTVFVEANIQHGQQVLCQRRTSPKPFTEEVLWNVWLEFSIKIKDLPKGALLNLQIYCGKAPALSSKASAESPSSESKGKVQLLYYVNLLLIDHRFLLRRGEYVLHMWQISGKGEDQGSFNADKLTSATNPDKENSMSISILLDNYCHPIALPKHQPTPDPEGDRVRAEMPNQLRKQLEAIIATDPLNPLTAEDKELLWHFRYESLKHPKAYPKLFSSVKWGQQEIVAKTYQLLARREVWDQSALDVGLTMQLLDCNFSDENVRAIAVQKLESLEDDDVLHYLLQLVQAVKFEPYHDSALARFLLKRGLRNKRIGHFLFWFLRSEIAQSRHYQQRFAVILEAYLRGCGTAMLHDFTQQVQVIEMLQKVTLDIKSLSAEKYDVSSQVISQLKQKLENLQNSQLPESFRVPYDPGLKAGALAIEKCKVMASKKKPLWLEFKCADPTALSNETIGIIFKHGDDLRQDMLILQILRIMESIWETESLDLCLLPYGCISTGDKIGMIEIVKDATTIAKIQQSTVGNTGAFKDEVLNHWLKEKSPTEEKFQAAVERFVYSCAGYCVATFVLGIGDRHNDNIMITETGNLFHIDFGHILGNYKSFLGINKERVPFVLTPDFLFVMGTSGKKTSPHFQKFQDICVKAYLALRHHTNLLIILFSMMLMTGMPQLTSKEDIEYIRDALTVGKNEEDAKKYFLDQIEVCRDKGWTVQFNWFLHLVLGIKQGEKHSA
row,Structure (SMILES),IC50
1,"Cc1ccc(S(=O)(=O)NCCC(C)(C)O)cc1-c1cncc(-c2cn(C)nc2C)n1 [Example 3, 3-[6-(1,3-Dimethyl-1H-pyrazol-4-yl)-pyrazin-2-yl]-N-(3-hydroxy-3-methyl-butyl)-4-methyl-benzenesulfonamide]",48 nM
2,"Cc1ccc(S(=O)(=O)N[C@H]2CC[C@H](O)CC2)cc1-c1cncc(-c2cccnc2)n1 [Example 11, Trans N-(4-Hydroxy-cyclohexyl)-4-methyl-3-(6-pyridin-3-yl-pyrazin-2-yl)-benzenesulfonamide]",88 nM
3,"Cc1ccc(S(=O)(=O)NCCC(C)(C)O)cc1-c1cncc(-c2cnn(CCN3CCOCC3)c2)n1 [Example 9, N-(3-Hydroxy-3-methyl-butyl)-4-methyl-3-{6-[1-(2-morpholin-4-yl-ethyl)-1H-pyrazol-4-yl]-pyrazin-2-yl}-benzenesulfonamide]",160 nM
4,"Cc1ccc(S(=O)(=O)NCCC(C)(C)O)cc1-c1cncc(-c2cn(CCN3CCOCC3)nc2C)n1 [Example 10, N-(3-Hydroxy-3-methyl-butyl)-4-methyl-3-{6-[3-methyl-1-(2-morpholin-4-yl-ethyl)-1H-pyrazol-4-yl]-pyrazin-2-yl}-benzenesulfonamide]",27 nM

# Compounds with a lower IC50, results first:
row,IC50,Structure (SMILES)
1,19 nM,"Cc1ccc(S(=O)(=O)NCC(C)(C)O)cc1-c1cncc(-c2cn(C)nc2C)n1 [Example 2, 3-[6-(1,3-Dimethyl-1H-pyrazol-4-yl)-pyrazin-2-yl]-N-(2-hydroxy-2-methyl-propyl)-4-methyl-benzenesulfonamide]"
2,15 nM,"Cc1ncc(-c2cncc(-c3cc(S(=O)(=O)N[C@H]4CC[C@H](O)CC4)ccc3C)n2)s1 [Example 5, Trans N-(4-Hydroxycyclohexyl)-4-methyl-3-(6-(2-methylthiazol-5-yl)pyrazin-2-yl)benzenesulfonamide]"
3,20 nM,"Cc1ccc(S(=O)(=O)NCC(C)(C)CO)cc1-c1cncc(-c2cn(C)nc2C)n1 [Example 8, 3-[6-(1,3-Dimethyl-1H-pyrazol-4-yl)-pyrazin-2-yl]-N-(3-hydroxy-2,2-dimethyl-propyl)-4-methyl-benzenesulfonamide]"
4,14 nM,"Cc1ccc(S(=O)(=O)NCC2(C)COC2)cc1-c1cncc(-c2cn(C)nc2C)n1 [Example 4, Trans 3-[6-(1,3-Dimethyl-1H-pyrazol-4-yl)-pyrazin-2-yl]-4-methyl-N-(3-methyl-oxetan-3-ylmethyl)-benzenesulfonamide]"
5,22 nM,"Cc1ncc(-c2cncc(-c3cc(S(=O)(=O)NCCCO)ccc3C)n2)s1 [Example 1, N-(3-Hydroxy-propyl)-4-methyl-3-[6-(2-methyl-thiazol-5-yl)-pyrazin-2-yl]-benzenesulfonamide]"

# Source: US9862711B2, “Pyrazine derivatives as phosphatidylinositol 3-kinase inhibitors” (NOVARTIS AG, priority 2014, dated 2018)
